Data set [1] relates to SUDHL5 cells. Briefly: Induction of caspase-3/7 activity in SUDHL5 cells (Assay 4). The settings on record: Homo sapiens, SU-DHL-5, 3 h, caspase-3/7 induction, 3 h; read-out: Caspase SUDHL5 EC50 (median). It is filed as cell-based. In outline:
(§1)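 Read-out: Caspase-Glo 3/7 luminescence (1 h, 37 °C) after cells, plated overnight, were treated with compounds for 3 h at 37 °C. Signal corrected for cell-free medium background and expressed relative to DMSO control mean.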

Data set [2] deals with SUDHL10 cells. The data set is described as follows: Induction of cytotoxicity in SUDHL10 cells (Assay 6). Particulars: 5 h, CellTiter-Glo, read-out: Cytotox SUDHL10 IC50 (median). It is filed as cell-based. In outline: (§2)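 Cells plated overnight at 37 °C, then exposed to compound for 5 h in a humidified incubator at 37 °C. Viability read by CellTiter-Glo luminescence after 15 min shaking at room temperature; cell-free medium served as control.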
On the technique in general: In ATP-based viability assays light output follows the ATP content of the culture.

Data set [3] concerns SUDHL10 cells. Briefly: Induction of caspase-3/7 activity in SUDHL10 cells (Assay 4). It is filed as cell-based. The settings on record: Homo sapiens, SU-DHL10, 3 h, caspase-3/7 induction, 3 h; read-out: Caspase SUDHL10 EC50 (median). In outline:
as §1

Data set [4] concerns SUDHL5 cells. The data set is described as follows: Induction of cytotoxicity in SUDHL5 cells (Assay 6). It is filed as cell-based. The settings on record: 5 h, CellTiter-Glo, read-out: Cytotox SUDHL5 IC50 (median). In outline:
as §2

Another data set concerns the target BCL-2 (Homo sapiens (Human), UniProt P10415). The data set is described as follows: Protein-protein interaction assay BCL-2/Bad BH3 peptide (BCL-2 assay, TR-FRET). Particulars: read-out: BCL-2 Assay IC50 (median). The data set is classed as binding. The procedure:
Assay 3 Protein-Protein Interaction Assay: BCL-2/Bad BH3 Peptide (BCL-2 Assay)
The dose-dependent inhibition by the compounds described in this invention of the interaction between BCL-2 and the BH3 domain of Bad (both human) was determined using a steady state binding competition assay with time-resolved fluorescence energy transfer (TR-FRET) readout. For that purpose BCL-2 (amino acids 1-211, C-terminal fused to a hexahistidine (6×His) tag (SEQ ID 5) and a synthetic Bad BH3-derived peptide of sequence Biotin-PEG2-PEG2-[…]-Nle-[…]-amide (SEQ ID 4) served as protein receptor and tracer ligand respectively. The recombinant BCL-2 protein (expressed in E. coli) was purchased from BPS Bioscience (San Diego, Calif., USA). The Bad BH3-derived peptide can be obtained from e.g. Biosyntan (Berlin, Germany).
In the assay 11 different concentrations of each compound (0.1 nM, 0.33 nM, 1.1 nM, 3.8 nM, 13 nM, 44 nM, 0.15 μM, 0.51 μM, 1.7 μM, 5.9 μM and 20 μM) were typically measured as duplicates in the same microtiter plate. For that, 100-fold concentrated DMSO solutions were prepared by serial dilutions (1:3.4) of a 2 mM stock solution in a clear, 384-well microtiter plate (Greiner Bio-One, Frickenhausen, Germany). From there, 50 nl were transferred in a dark test plate (Greiner Bio-One, Frickenhausen, Germany). The assay was initiated by addition of 2 μL of a 2,5-fold concentrated His-BCL-2 solution (usually for a 1 nM end concentration in 5 μL reaction volume) in aqueous assay buffer [50 mM Tris/HCl pH 7, 100 mM sodium chloride (NaCl), 50 mM potassium fluoride (KF), 0.005% Tween-20, 2 mM DTT, 0.1% bovine gamma globulin (BGG)] to the compounds in the assay plate. This was followed by a 10-minute incubation step at 22° C. for pre-equilibration of the putative complex between His-BCL-2 and the compounds. After that, 3 μL of a 1.67-fold concentrated solution (in assay buffer) consisting of Bad BH3-derived peptide (1 nM end concentration) and TR-FRET detection reagents [1.67 nM anti-His-Eu cryptate and 1.67 nM streptavidin-XL665 (both from Cisbio Bioassays, Codolet, France)], were added.
The mixture was incubated in the dark for one hour at 22° C. and then overnight at 4° C. The formation of BCL-2/Bad complexes was determined by measuring the resonance energy transfer of the anti-His-Eu-cryptate antibody to the streptavidin-XL665 present in the reaction. For that purpose, the fluorescence emission at 620 nm and 665 nm after excitation at 330-350 nm was measured in a TR-FRET measuring instrument, for instance a Rubystar or a Pherastar (both from BMG Lab Technologies, Offenburg, Germany) or a Viewlux (Perkin-Elmer). The ratio of the emission at 665 nm and at 622 nm was used as indicator of the amount of BCL-2/Bad complexes present.
The resulting data (ratio) were normalized, taking 0% inhibition as the mean value of control measurements (usually 32 data points) where all reagents were included. In this case 50 nl DMSO were used instead of compounds. […] IC50 values were determined by regression analysis based on a 4 parameter equation (minimum, maximum, IC50, Hill; Y=Max+(Min−Max)/(1+(X/IC50)^Hill) using the Screener Software (Genedata).
Background: TR-FRET usually uses a lanthanide donor and a delayed reading to cut background.

SMILES strings stand for the structures. Where a name gives a salt, the structure may show the parent alone. Read-outs that look alike come from different tables or passages of the source. Where only a bound is given, the exact number is not on record here.

BCL-2, sequence (P10415 1-211): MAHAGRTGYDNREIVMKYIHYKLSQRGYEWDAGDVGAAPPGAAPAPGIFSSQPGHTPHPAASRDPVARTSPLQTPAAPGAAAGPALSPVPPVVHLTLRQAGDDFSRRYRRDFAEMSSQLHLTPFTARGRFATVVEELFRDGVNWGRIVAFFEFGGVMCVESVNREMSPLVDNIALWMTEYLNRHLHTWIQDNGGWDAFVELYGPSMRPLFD

In general, EC50 refers to the midpoint of the concentration-response curve. What is called IC50 is the concentration needed to halve the response being measured. `Cc1c2c(nn1C)C(CCO)OCCCCn1c(C(=O)O)c(CCCOc3cccc4ccccc34)c3ccc(Cl)c-2c31` (racemic) [Example 26, (rac)-4-chloro-15-(2-hydroxyethyl)-2,3-dimethyl-7-{3-[(naphthalen-1-yl)oxy]propyl}-2,10,11,12,13,15-hexahydropyrazolo[4′,3′:9,10][1,6]oxazacycloundecino[8,7,6-hi]indole-8-carboxylic Acid]: the half-maximal effective concentration (EC50) in the data set with SUDHL5 cells [1] is 120 nM; in the data set with SUDHL10 cells [3], 980 nM. Moreover, the IC50 in the data set on SUDHL10 cells [2] (Homo sapiens, SU-DHL10, 5 h) is 870 nM; with SUDHL5 cells [4] (Homo sapiens, SU-DHL-5, 5 h), 400 nM; on BCL-2, over 20000 nM.

In the case of `Cc1c2c(nn1C)C(C1CC1)OCCCCn1c(C(=O)O)c(CCCOc3cccc4ccccc34)c3ccc(Cl)c-2c31` (racemic) [Example 28, (rac)-4-Chloro-15-cyclopropyl-2,3-dimethyl-7-{3-[(naphthalen-1-yl)oxy]propyl}-2,10,11,12,13,15-hexahydropyrazolo[4′,3′:9,10][1,6]oxazacycloundecino[8,7,6-hi]indole-8-carboxylic Acid], the EC50 stood at 2800 nM in the data set on SUDHL5 cells [1] and 7200 nM in the data set with SUDHL10 cells [3]. Besides, the IC50 in the data set with SUDHL10 cells [2] (Homo sapiens, SU-DHL10, 5 h) was 8400 nM; in the data set with SUDHL5 cells [4] (Homo sapiens, SU-DHL-5, 5 h), 3000 nM; on BCL-2 it was over 20000 nM.

In the case of `COCCC1OCCCCn2c(C(=O)O)c(CCCOc3cccc4ccccc34)c3ccc(Cl)c(c32)-c2c1nn(C)c2C` (racemic) [Example 37, (rac)-4-chloro-(15-rac)-(2-methoxyethyl)-2,3-dimethyl-7-{3-[(naphthalen-1-yl)oxy]propyl}-2,10,11,12,13,15-hexahydropyrazolo[4′,3′:9,10][1,6]oxazacycloundecino[8,7,6-hi]indole-8-carboxylic Acid], the EC50 in the data set on SUDHL5 cells [1] was 250 nM; with SUDHL10 cells [3] it was 210 nM. The IC50 with SUDHL10 cells [2] (Homo sapiens, SU-DHL10, 5 h) is 360 nM; in the data set with SUDHL5 cells [4] (Homo sapiens, SU-DHL-5, 5 h), 390 nM; at BCL-2 it was over 20000 nM.

`CCc1c2c(nn1C)C(CCOC)OCCCCn1c(C(=O)O)c(CCCOc3cccc4cc(F)ccc34)c3ccc(Cl)c-2c31` (racemic) [Example 41, (rac)-4-chloro-3-ethyl-7-{3-[(6-fluoronaphthalen-1-yl)oxy]propyl}-(15-rac)-(2-methoxyethyl)-2-methyl-2,10,11,12,13,15-hexahydropyrazolo[4′,3′:9,10][1,6]oxazacycloundecino[8,7,6-hi]indole-8-carboxylic Acid]: the EC50 worked out at 97 nM in the data set with SUDHL5 cells [1] and 130 nM in the data set on SUDHL10 cells [3]. Besides, the IC50 in the data set on SUDHL10 cells [2] (Homo sapiens, SU-DHL10, 5 h) was found to be 160 nM; in the data set with SUDHL5 cells [4] (Homo sapiens, SU-DHL-5, 5 h), 170 nM; at BCL-2, 18100 nM.

In the case of `CCc1c2c(nn1C)C(CCO)OCCCCn1c(C(=O)O)c(CCCOc3cccc4cc(F)ccc34)c3ccc(Cl)c-2c31` (racemic) [Example 44, (rac)-4-chloro-3-ethyl-7-{3-[(6-fluoronaphthalen-1-yl)oxy]propyl}-(15-rac)-(2-hydroxyethyl)-2-methyl-2,10,11,12,13,15-hexahydropyrazolo[4′,3′:9,10][1,6]oxazacycloundecino[8,7,6-hi]indole-8-carboxylic Acid], the EC50 in the data set with SUDHL5 cells [1] amounted to 120 nM; in the data set on SUDHL10 cells [3], 150 nM. Also, the half-maximal inhibitory concentration (IC50) with SUDHL10 cells [2] (Homo sapiens, SU-DHL10, 5 h) was 200 nM; with SUDHL5 cells [4] (Homo sapiens, SU-DHL-5, 5 h), 140 nM; on BCL-2, over 20000 nM.

On to `CCc1c2c(nn1C)C(CCN1CCOCC1)OCCCCn1c(C(=O)O)c(CCCOc3cccc4cc(F)ccc34)c3ccc(F)c-2c31` (racemic) [Example 49, (rac)-3-Ethyl-4-fluoro-7-{3-[(6-fluoronaphthalen-1-yl)oxy]propyl}-2-methyl-(15-rac)-[2-(morpholin-4-yl)ethyl]-2,10,11,12,13,15-hexahydropyrazolo[4′,3′:9,10][1,6]oxazacycloundecino[8,7,6-hi]indole-8-carboxylic Acid], for which the concentration for a half-maximal effect (EC50) was 33 nM in the data set on SUDHL5 cells [1] and 21 nM in the data set with SUDHL10 cells [3]. The half-inhibitory concentration (IC50) with SUDHL10 cells [2] (Homo sapiens, SU-DHL10, 5 h) is 33 nM; in the data set with SUDHL5 cells [4] (Homo sapiens, SU-DHL-5, 5 h), 34 nM; on BCL-2, over 20000 nM.

In the case of `CCc1c2c(nn1C)C(CC(C)(C)O)OCCCCn1c(C(=O)O)c(CCCOc3cccc4cc(F)ccc34)c3ccc(Cl)c-2c31` (racemic) [Example 52, (rac)-4-chloro-3-ethyl-7-{3-[(6-fluoronaphthalen-1-yl)oxy]propyl}-(15-rac)-(2-hydroxy-2-methylpropyl)-2-methyl-2,10,11,12,13,15-hexahydropyrazolo[4′,3′:9,10][1,6]oxazacycloundecino[8,7,6-hi]indole-8-carboxylic Acid], the EC50 worked out at 420 nM in the data set on SUDHL5 cells [1] and 160 nM in the data set with SUDHL10 cells [3]. Further, the IC50 with SUDHL10 cells [2] (Homo sapiens, SU-DHL10, 5 h) was found to be 280 nM; in the data set with SUDHL5 cells [4] (Homo sapiens, SU-DHL-5, 5 h) it was 380 nM; at BCL-2, 15900 nM.

As to `CCc1c2c(nn1C)C(CCN1CCC(F)(F)C1)OCCCCn1c(C(=O)O)c(CCCOc3cccc4cc(F)ccc34)c3ccc(Cl)c-2c31` (racemic) [Example 55, (rac)-4-chloro-(15-rac)-[2-(3,3-difluoropyrrolidin-1-yl)ethyl]-3-ethyl-7-{3-[(6-fluoronaphthalen-1-yl)oxy]propyl}-2-methyl-2,10,11,12,13,15-hexahydropyrazolo[4′,3′:9,10][1,6]oxazacycloundecino[8,7,6-hi]indole-8-carboxylic acid—2-hydroxypropane-1,2,3-tricarboxylic Acid Salt], the EC50 in the data set with SUDHL5 cells [1] came to 32 nM; in the data set with SUDHL10 cells [3] it was 47 nM. Moreover, the IC50 in the data set with SUDHL10 cells [2] (Homo sapiens, SU-DHL10, 5 h) was 68 nM; in the data set on SUDHL5 cells [4] (Homo sapiens, SU-DHL-5, 5 h), 41 nM; at BCL-2 it was over 20000 nM.

As to `CCc1c2c(nn1C)C(c1ccccc1)OCCCCn1c(C(=O)O)c(CCCOc3cccc4cc(F)ccc34)c3ccc(Cl)c-2c31` (racemic) [Example 59, (rac)-4-chloro-3-ethyl-7-{3-[(6-fluoronaphthalen-1-yl)oxy]propyl}-2-methyl-(15-rac)-phenyl-2,10,11,12,13,15-hexahydropyrazolo[4′,3′:9,10][1,6]oxazacycloundecino[8,7,6-hi]indole-8-carboxylic Acid], the EC50 was 430 nM in the data set with SUDHL5 cells [1] and 570 nM in the data set with SUDHL10 cells [3]. For the same compound, the IC50 came out at 1000 nM in the data set with SUDHL10 cells [2] (Homo sapiens, SU-DHL10, 5 h); 640 nM in the data set on SUDHL5 cells [4] (Homo sapiens, SU-DHL-5, 5 h); 13200 nM on BCL-2.

In the case of `CCc1c2c(nn1C)C(CCC1CCOCC1)OCCCCn1c(C(=O)O)c(CCCOc3cccc4cc(F)ccc34)c3ccc(Cl)c-2c31` (racemic) [Example 60, (rac)-4-chloro-3-ethyl-7-{3-[(6-fluoronaphthalen-1-yl)oxy]propyl}-2-methyl-(15-rac)-[2-(oxan-4-yl)ethyl]-2,10,11,12,13,15-hexahydropyrazolo[4′,3′:9,10][1,6]oxazacycloundecino[8,7,6-hi]indole-8-carboxylic Acid], the EC50 was determined as 50 nM in the data set with SUDHL5 cells [1] and 77 nM in the data set with SUDHL10 cells [3]. Also, the IC50 was 87 nM with SUDHL10 cells [2], 77 nM in the data set with SUDHL5 cells [4] and 14100 nM at BCL-2.

Source of the values: patent publication US11440923B2, “Substituted macrocyclic indole derivatives” (Bayer Aktiengesellschaft, priority 2017, dated 2022).
